Here are results for 6 compounds from patent publication US20220220106A1, “QUINOLINE COMPOUNDS AND PHARMACEUTICAL COMPOSITIONS AND USES THEREOF” (Academy of Military Medical Sciences, priority 2019, published 2022).

Molecules are shown by their SMILES.

Data set [1] addresses T1, mTORC1 (Homo sapiens, UniProt P42345).
T1 construct: endogenous in cells; host or cells: RD cells
The experiment in a line: Western blot, phosphorylation of Thr389 of p70S6K1 in RD cells (mTORC1 inhibition). Type of data set: cell-based. The following applies: 20 μM, 2 hours, Western blot (FIG. 1). The protocol: In order to test the inhibitory activity of the synthesized compounds on the two mTOR complexes, the inhibitory activity experiments of mTORC1 and mTORC2 were carried out. Since mTORC1 and mTORC2 exerted their function by activating the phosphorylation of downstream substrates, the inhibitory activity of the compounds on mTORC1 and mTORC2 could be determined by detecting the phosphorylation levels of the Thr389 site of mTORC1 downstream substrate p70S6K1 and the Ser473 site of mTORC2 downstream substrate Akt.
Pretreatment of Compound:
(1) RD cells were cultured in DMEM medium containing 10% FBS and 1×PS (penicillin and streptomycin were at concentrations 100 IU and 100 μg/mL, respectively) at 37° C. and 5% CO2.
(2) The RD cells (5×10^5 cells/2 mL medium) were inoculated into a 6-well plate and incubated at 37° C. and 5% CO2 for 24 hours.
(3) The cells were washed once with PBS, and the cells were cultured in serum-free medium without nutrients overnight.
(4) Formulation of compounds: […]
Preparation of insulin medium: Insulin was diluted in DMEM medium containing 10% FBS and 1×PS so that the final concentration of insulin was 167 nM.
Pretreatment of compound to be tested: The compound was dissolved in DMSO so that the concentration of the test compound was 20 mM, and the compound was diluted in 167 nM insulin medium to reach a concentration of 20 μM.
Preparation of rapamycin solution: Rapamycin was dissolved in DMSO to a concentration of 10 mM, and the rapamycin was diluted in 167 nM insulin medium to reach a concentration of 20 μM.
(5) The serum-free medium in each well was removed.
(6) 2 mL of complete medium containing DMSO was added to each well as a control carrier. The final concentration of DMSO was 0.2%.
(7) 2 mL of 20 μM rapamycin solution and 20 μM the compound to be tested were added to the designated wells, respectively. The final concentration of DMSO was 0.2%.
(8) The cells were incubated for 2 hours at 37° C. and 5% CO2.
Protein extraction and concentration determination:
(1) The cells were washed once with refrigerated PBS, and then the PBS was discarded.
(2) 150 μL of cell extraction buffer (RIPA, […], catalog number: C1053) was transferred into each well to lyse the cells, and then the resulting cell solution were incubated on ice for 30 minutes.
(3) Centrifugation was performed at 14000 rpm (13000× g) for 30 minutes at 4° C.
(4) The supernatant was transferred into a new eppendorf tube, and the cell lysate was stored at −80° C. before testing.
(5) The protein concentration was determined by BCA method.
Preparation of Buffer Solutions:
(1) 100× Protease inhibitor (Beyotime, catalog number: P1005): 1 mL of redistilled water was added to the protease inhibitor and stirred gently until the solid was completely dissolved.
(2) Lysis Buffer: […] of 100× protease inhibitor and 2× phosphatase inhibitor Cocktails PhosSTOP (Beyotime, catalog number: P1082) were added to 100 mL of the cell extract, and stirred gently until it was completely dissolved.
(3) Electrophoresis Running Buffer:
10×MOPS buffer: 52.33 g of MOPS, 30.29 g of Tris base, 10 mL of 0.5 mol/L EDTA (pH 8.5) and 5 g of SDS was dissolved in 400 mL of redistilled water, stirred to dissolve, and the pH was adjusted to 7.5, then redistilled water was added again to reach a volume of 500 mL; 1×MOPS: 100 mL of 10×MOPS was diluted with redistilled water to 1000 mL.
(4) 1× Transfer Buffer: […] of 10× transfer buffer (144 g of glucine, 30.3 g of trisbase, and distilled water were mixed to reach a volume of 1 L) and 400 mL of methanol were dissolved in 1500 mL of redistilled water, and then the redistilled water was added to reach a volume of 2000 mL. […]

On to `O=c1ccc2cnc3ccc(-c4cc[nH]n4)cc3c2n1-c1cccc(C(F)(F)F)c1` [HTL-6-50, 9-[(1H)-3-pyrazolyl]-2-oxo-1-[3-(trifluoromethyl)phenyl]-1,2-dihydrobenzo[h][1,6]naphthyridine], for which the melting point fell in the range of 283 to 286 °C. In data set [1], the “p70 phosphorylation expression level” value was “significantly down-regulate”.

For the compound `NC(=O)c1ccc(-c2ccc3ncc4oc(=O)n(-c5cccc(C(F)(F)F)c5)c4c3c2)cc1` [HTL-5-21, 8-(4-carbamoyl)phenyl-1-[3-(trifluoromethyl)phenyl]oxazolo[5,4-c]quinolin-2(1H)-one], the melting point was in the range of 294 to 296 °C. Further, in data set [1], the “p70 phosphorylation expression level” value is on record as “significantly down-regulate”.

Turning to `CC(=O)/C=C/c1cnc2ccc(-c3ccc(C)nc3)cc2c1Nc1cccc(C(F)(F)F)c1` [HTL-2-38, (E)-6-[3-(6-methyl)pyridyl]-4-[3-(trifluoromethyl)phenyl]aminoquinoline-3-butenone], the melting point was 172 to 174 °C. Further, the “p70 phosphorylation expression level” value in data set [1] is recorded as “significantly down-regulate”.

For the compound `NC(=O)/C=C/c1ccc2ncc3oc(=O)n(-c4cccc(C(F)(F)F)c4)c3c2c1` [HTL-6-30, (E)-8-(2-carbamoyl-vinyl)-1-[3-(trifluoromethyl)phenyl]oxazolo[5,4-c]quinolin-2(1H)-one], the melting point fell in the range of 291 to 292 °C. Also, in data set [1], the “p70 phosphorylation expression level” value is given as “significantly down-regulate”.

On to `O=c1ccc2cnc3ccc(-c4ccc5ncccc5c4)cc3c2n1-c1cccc(C(F)(F)F)c1` [HTL-6-47, 9-(6-quinolyl)-2-oxo-1-[3-(trifluoromethyl)phenyl]-1,2-dihydrobenzo[h][1,6]naphthyridine], for which the melting point lay within 196 to 197 °C. For the same compound, in data set [1], the “p70 phosphorylation expression level” value is “significantly down-regulate”.

Compound `COc1ncc(-c2ccc3ncc4ccc(=O)n(-c5cccc(C(F)(F)F)c5)c4c3c2)cn1` [HTL-7-06, 9-[5-(2-methoxy)pyrimidyl]-2-oxo-1-[3-(trifluoromethyl)phenyl]-1,2-dihydrobenzo[h][1,6]naphthyridine] came in with a melting point of 262 to 264 °C. In addition, the “p70 phosphorylation expression level” value in data set [1] is on record as “significantly down-regulate”.
